Results: patent US6096771A, “Isoxazole derivatives” (Sankyo Company, Limited, priority 1994, dated 2000)
Where a name gives a salt, the structure may show the parent alone.

Target: T1, B-type monoamine oxidase (Mus musculus, UniProt Q8BW75)
T1 sequence (Q8BW75 1-520): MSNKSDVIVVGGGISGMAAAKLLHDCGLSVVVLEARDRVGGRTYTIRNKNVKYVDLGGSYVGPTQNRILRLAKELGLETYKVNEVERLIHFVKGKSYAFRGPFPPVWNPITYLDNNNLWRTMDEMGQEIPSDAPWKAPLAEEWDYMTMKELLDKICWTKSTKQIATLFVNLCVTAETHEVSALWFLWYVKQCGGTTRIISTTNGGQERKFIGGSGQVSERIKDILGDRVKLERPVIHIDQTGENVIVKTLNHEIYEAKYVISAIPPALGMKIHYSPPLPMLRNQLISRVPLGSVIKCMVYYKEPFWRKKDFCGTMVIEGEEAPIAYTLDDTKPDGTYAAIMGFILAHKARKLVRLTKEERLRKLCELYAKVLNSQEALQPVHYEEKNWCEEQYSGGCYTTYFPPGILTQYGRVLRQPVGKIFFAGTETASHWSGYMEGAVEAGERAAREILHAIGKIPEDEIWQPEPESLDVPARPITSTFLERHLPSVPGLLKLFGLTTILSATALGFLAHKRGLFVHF
Assay: Monoamine oxidase-inhibitory activity, B-type (crude mitochondria of mouse brain, 14C-2-phenylethylamine substrate)
Format: biochemical
Conditions: 14C-PEA 20 μM, pH 7.4, 38° C., 20 min preincubation

Row | SMILES | IC50
1 | NCCOc1noc2ncccc12 [10(e), 3-(2-Aminoethoxy)pyrido[3,2-d]isoxazole Dihydrochloride] | 10.2 nM
2 | NCCOc1noc2ncccc12 [10(f), 3-(2-Aminoethoxy)pyrido[3,2-d]isoxazole Hydrochloride] | 13.5 nM
3 | COc1ccc2onc(OCCN)c2c1 [Example 6, 3-(2-Aminoethoxy)-5-methoxy-1,2-benzisoxazole hydrochloride] | 5.6 nM
4 | NCCOc1noc2c(Cl)cccc12 [Example 9, 3-(2-Aminoethoxy)-7-chloro-1,2-benzisoxazole Hydrochloride] | 20 nM
5 | NCCOc1noc2c(Cl)cc(Cl)cc12 [Example 12, 3-(2-Aminoethoxy)-5,7-dichloro-1,2-benzisoxazole Hydrochloride] | 26.5 nM
6 | Cc1cccc2c(OCCN)noc12 [Example 13, 3-(2-Aminoethoxy)-7-methyl-1,2-benzisoxazole Hydrochloride] | 27.5 nM
7 | Cc1ccc2c(OCCN)noc2c1 [Example 14, 3-(2-Aminoethoxy)-6-methyl-1,2-benzisoxazole Hydrochloride] | 21.5 nM
8 | CSc1c(F)ccc2onc(OCCN)c12 [Example 21, 3-(2-Aminoethoxy)-5-fluoro-4-methylthio-1,2-benzisoxazole Hydrochloride] | 4.7 nM
9 | N#Cc1cccc2onc(OCCN)c12 [Example 24, 3-(2-Aminoethoxy)-4-cyano-1,2-benzisoxazole hydrochloride] | 6.8 nM
10 | COc1ccc2onc(SCCN)c2c1 [Example 33, 3-(2-Aminoethylthio)-5-methoxy-1,2-benzisoxazole hydrochloride] | 4.5 nM
11 | NCCSc1noc2ccc([N+](=O)[O-])cc12 [Example 35, 3-(2-Aminoethylthio)-5-nitro-1,2-benzisoxazole hydrochloride] | 9 nM
12 | COC(=O)c1ccc2onc(OCCN)c2c1 [Example 42, 3-(2-Aminoethoxy)-5-methoxycarbonyl-1,2-benzisoxazole hydrochloride] | 18 nM
13 | NCCOc1noc2ccc(OC(F)F)cc12 [Example 44, 3-(2-Aminoethoxy)-5-difluoromethoxy-1,2-benzisoxazole hydrochloride] | 6 nM
14 | Cc1cc(Cl)cc2c(SCCN)noc12 [Example 56, 3-(2-Aminoethylthio)-5-chloro-7-methyl-1,2-benzisoxazole hydrochloride] | 6.6 nM

Results, then the molecule that gave them:

Row | IC50 | SMILES
15 | 4.2 nM | Cc1c(F)ccc2onc(OCCN)c12 [Example 17, 3-(2-Aminoethoxy)-5-fluoro-4-methyl-1,2-benzisoxazole Hydrochloride]
16 | 2.95 nM | NCCSc1noc2ccc(Cl)cc12 [Example 38, 3-(2-Aminoethylthio)-5-chloro-1,2-benzisoxazole hydrochloride]
17 | 2.8 nM | NCCOc1noc2cc(Cl)ccc12 [Example 11, 3-(2-Aminoethoxy)-6-chloro-1,2-benzisoxazole Hydrochloride]
18 | 2.7 nM | NCCSc1noc2ccc(F)cc12 [Example 26, 3-(2-Aminoethylthio)-5-fluoro-1,2-benzisoxazole hydrochloride]
19 | 2.2 nM | Cc1ccc2onc(SCCN)c2c1 [Example 34, 3-(2-Aminoethylthio)-5-methyl-1,2-benzisoxazole hydrochloride]
20 | 1.85 nM | NCCOc1noc2ccccc12 [Example 2, 3-(2-Aminoethoxy)-1,2-benzisoxazole hydrochloride]
21 | 1.35 nM | NCCOc1noc2ccc(F)cc12 [Example 5, 3-(2-Aminoethoxy)-5-fluoro-1,2-benzisoxazole hydrochloride]
22 | 0.56 nM | Cc1ccc2onc(OCCN)c2c1 [Example 7, 3-(2-Aminoethoxy)-5-methyl-1,2-benzisoxazole Hydrochloride]
23 | 0.56 nM | NCCOc1noc2ccc([N+](=O)[O-])cc12 [Example 8, 3-(2-Aminoethoxy)-5-nitro-1,2-benzisoxazole Hydrochloride]
24 | 0.37 nM | NCCOc1noc2ccc(Cl)cc12 [Example 1, 3-(2-Aminoethoxy)-5-chloro-1,2-benzisoxazole hydrochloride]
25 | 0.32 nM | NCCOc1noc2ccc(Br)cc12 [Example 15, 3-(2-Aminoethoxy)-5-bromo-1,2-benzisoxazole Hydrochloride]

Same assay, conditions: 14C-PEA 20 μM, pH 7.4, 38° C., reference compounds A and B

Row | IC50 | SMILES
26 | 2350 nM | CNCCOc1noc2ccccc12 [Compound A, 3(2-N-Methylamino)ethoxy-1,2-benzisoxazole, reference compound]
27 | 4700 nM | CN(C)CCOc1noc2ccccc12 [Compound B, 3(2-N,NDimethylamino)ethoxy-1,2-benzisoxazole]

Test system: not given
Assay: not given
Conditions: Farmaco, Ed. Sci., 23, 1081 (1968); 24, 440 (1969); cited from earlier work

Row | SMILES | local (infiltration) anaesthetic effect
28 | CN(C)CCOc1noc2ccccc12 [Compound B, 3(2-N,NDimethylamino)ethoxy-1,2-benzisoxazole] | local (infiltration) anaesthetic effect

Test system: not given
Assay: not given
Conditions: Farmaco, Ed. Sci., 23, 1081 (1968); 24, 440 (1969); cited from earlier work
Remark: another data set of the same source

Row | SMILES | anti-inflammatory effects
29 | CN(C)CCOc1noc2ccccc12 [Compound B, 3(2-N,NDimethylamino)ethoxy-1,2-benzisoxazole] | possesses anti-inflammatory effects
